Measurements taken from patent publication US10800772B2 (Gilead Sciences, Inc., priority 2016, dated 2020).
Where two headings read alike, the source gives them in different places.

Experiments:
Assay type in all cases: cell-based, HIV-1
HIV-IIIb IN T174I BT = assay: Antiviral assay in MT4 cells, HIV-IIIb IN T174I BT virus (from viral breakthrough); conditions: Human immunodeficiency virus 1, IIIB, MT4, 120 h, read-out: T174I BT EC50, MT4 cells, HIV-IIIb IN T174I BT (viral breakthrough), 5 days, CellTiter-Glo
Method: (§1) Antiviral Assay in MT4 Cells
(§2) For the antiviral assay, 0.4 μL of 189X test concentration of 3-fold serially diluted compound in DMSO was added to 40 μL of cell growth medium (RPMI 1640, 10% FBS, 1% Penicillin-Streptomycin, 1% L-Glutamine, 1% HEPES) in each well of 384-well plate (10 concentrations) in quadruplicate.
(§3) 1 mL Aliquots of MT4 cells were pre-infected for 3 hours at 37° C. with 25 μL of cell growth medium (mock-infected) or a fresh 1:250 dilution of an HIV-IIIb (wildtype, IN T174I BT, or IN T174I DE) concentrated ABI stock (0.004 m.o.i.). IN T174I BT virus was derived from viral breakthrough (BT) assay as described in Mulato, A.; Hansen, D.; Thielen, A.; Porter, D.; Stepan, G.; White, K.; Daeumer, M.; Cihlar, T.; Yant, S. R. AIDS Research and Human Retrovirues, July 2016, ahead of print. doi:10.1089/aid.2016.0071. IN T174I DE virus was derived from serial passaging with dose escalation (DE) of test compound. Infected and uninfected cells were diluted in cell growth media and 35 μL (2000 cells) was added to each well of the assay plates.
(§4) Assay plates were then maintained in a humidified, 5% CO2 incubator at 37° C. After 5 days of incubation, 25 μl of 2× concentrated CellTiter-Glo™ Reagent (catalog # G7573, Promega Biosciences, Inc., Madison, Wis.) was added to each well of the assay plate. Cell lysis was carried out by incubating at room temperature for 10 minutes and then chemiluminescence was read using an Envision plate reader (PerkinElmer). EC50 values were calculated as the compound concentration that caused a 50% […] in luminescence signal, a measure of HIV-1 replication.

HIV-IIIb (wildtype) = assay: Antiviral assay in MT4 cells, HIV-IIIb wildtype; conditions: read-out: WT EC50
Method: as §1, §2, §3, §4

HIV-IIIb IN T174I DE = assay: Antiviral assay in MT4 cells, HIV-IIIb IN T174I DE virus (from dose escalation passaging); conditions: Human immunodeficiency virus 1, IIIB, MT4, 120 h, read-out: T174I DE EC50, MT4 cells, HIV-IIIb IN T174I DE (dose escalation), 5 days, CellTiter-Glo
Method: as §1, §2, §3, §4

[1] = Human immunodeficiency virus 1, IIIB, MT4, 120 h

| Structure (SMILES) | EC50 (HIV-IIIb IN T174I BT) [nM] | EC50 (HIV-IIIb (wildtype); [1]) [nM] | EC50 (HIV-IIIb IN T174I DE) [nM] | EC50 (HIV-IIIb (wildtype); Human immunodeficiency virus 1, 120 h, MT4 cells, HIV-IIIb wildtype, 5 days, CellTiter-Glo) [nM] |
| --- | --- | --- | --- | --- |
| CCn1nc(C2CCN(C3CN(C(C)=O)C3)CC2)c2nc(-c3nc4cc(C)c([C@H](OC(C)(C)C)C(=O)O)c(-c5ccc(Cl)cc5)c4s3)ccc21 [Compound 181, (S)-2-(2-(3-(1-(1-acetylazetidin-3-yl)piperidin-4-yl)-1-ethyl-1H-pyrazolo[4,3-b]pyridin-5-yl)-7-(4-chlorophenyl)-5-methylbenzo [d]thiazol-6-yl)-2-(tert-butoxy) acetic acid] | 12 | 1 | 34 | – |
| Cc1cc2nc(-c3ccc4[nH]nc(C5CCN(C6COC6)CC5)c4c3)sc2c(-c2ccc(Cl)cc2)c1[C@H](OC(C)(C)C)C(=O)O [Compound 34, (S)-2-(tert-butoxy)-2-(7-(4-chlorophenyl)-5-methyl-2-(3-(1-(oxetan-3-yl)piperidin-4-yl)-1H-indazol-5-yl)benzo[d]thiazol-6-yl)acetic acid] | 968 | – | 1170 | 31 |
| CC(=O)N1CC(N2CCC(c3nn(C)c4ncc(-c5nc6cc(C)c([C@H](OC(C)(C)C)C(=O)O)c(-c7ccc(Cl)cc7)c6s5)nc34)CC2)C1 [Compound 120, (S)-2-(2-(3-(1-(1-acetylazetidin-3-yl)piperidin-4-yl)-1-methyl-1H-pyrazolo[3,4-b]pyrazin-5-yl)-7-(4-chlorophenyl)-5-methylbenzo[d]thiazol-6-yl)-2-(tert-butoxy)acetic acid] | 185 | 3 | 217 | – |
| Cc1cc2nc(-c3ccc4c(c3)c(C3CCN(C5CCC5)C3)nn4C)sc2c(-c2ccc(Cl)cc2)c1[C@H](OC(C)(C)C)C(=O)O (stereo partly drawn) [Compound 71, (2S)-2-(tert-butoxy)-2-(7-(4-chlorophenyl)-2-(3-(1-cyclobutylpyrrolidine-3-yl)-1-methyl-1H-indazol-5-yl)-5-methylbenzo[d]thiazol-6-yl)acetic acid] | 2470 | 5 | 2240 | – |
| CCN1CC(c2nn(C)c3ccc(-c4nc5cc(C)c([C@H](OC(C)(C)C)C(=O)O)c(-c6ccc(Cl)cc6)c5s4)cc23)C1 [Compound 58, (S)-2-(tert-butoxy)-2-(7-(4-chlorophenyl)-2-(3-(1-ethylazetidin-3-yl)-1-methyl-1H-indazol-5-yl)-5-methylbenzo[d]thiazol-6-yl)acetic acid] | 1930 | 9 | 3090 | – |
| Cc1cc2nc(-c3cnc4c(c3)c(N3CCN(C(C)C)CC3)nn4C)sc2c(-c2ccc(Cl)cc2)c1[C@H](OC(C)(C)C)C(=O)O [Compound 111, (S)-2-(tert-butoxy)-2-(7-(4-chlorophenyl)-2-(3-(4-isopropylpiperazin-1-yl)-1-methyl-1H-pyrazolo[3,4-b]pyridin-5-yl)-5-methylbenzo[d]thiazol-6-yl)acetic acid] | 1150 | 5 | 2880 | – |
| Cc1cc2nc(-c3ccc4[nH]nc(C5CCN(C6COC6)CC5)c4n3)sc2c(-c2ccc(Cl)cc2)c1[C@H](OC(C)(C)C)C(=O)O [Compound 174, (S)-2-(tert-butoxy)-2-(7-(4-chloro-phenyl)-5-methyl-2-(3-(1-(oxetan-3-yl)piperidin-4-yl)-1H-pyrazolo [4,3-b]pyridin-5-yl)benzo[d]thiazol-6-yl)acetic acid] | 219 | 11 | 587 | – |
| Cc1cc2nc(-c3ccc4c(c3)c(N3CCN5CCOC[C@@H]5C3)nn4C)sc2c(-c2ccc(Cl)cc2)c1[C@H](OC(C)(C)C)C(=O)O [Compound 4, (S)-2-(tert-butoxy)-2-(7-(4-chlorophenyl)-2-(3-((S)-hexahydropyrazino[2,1-c][1,4]oxazin-8(1H)-yl)-1-methyl-1H-indazol-5-yl)-5-methylbenzo[d]thiazol-6-yl)acetic Acid] | 1270 | 10 | 1740 | – |
| Cc1cc2nc(-c3ccc4c(c3)c(C3=CCOC3)nn4C)sc2c(-c2ccc(Cl)cc2)c1[C@H](OC(C)(C)C)C(=O)O [Compound 51, (S)-2-(tert-butoxy)-2-(7-(4-chlorophenyl)-2-(3-(2,5-dihydrofuran-3-yl)-1-methyl-1H-indazol-5-yl)-5-methylbenzo[d]thiazol-6-yl)acetic acid] | 2720 | 15 | 3590 | – |
| CO[C@H]1CCN(c2nn(C)c3ccc(-c4nc5cc(C)c([C@H](OC(C)(C)C)C(=O)O)c(-c6ccc(Cl)cc6)c5s4)cc23)C1 [Compound 139, (S)-2-(tert-butoxy)-2-(7-(4-chloro-phenyl)-2-(3-((S)-3-methoxy-pyrrolidin-1-yl)-1-methyl-1H-indazol-5-yl)-5-methylbenzo[d]thiazol-6-yl) acetic acid] | 7810 | 88 | 5780 | – |
| Cc1cc2nc(-c3ccc4c(c3)c(N3CCOCC3)nn4C)sc2c(-c2ccc(Cl)cc2)c1[C@H](OC(C)(C)C)C(=O)O [Compound 144, (S)-2-(tert-butoxy)-2-(7-(4-chloro-phenyl)-5-methyl-2-(1-methyl-3-morpholino-1H-indazol-5-yl)benzo[d]thiazol-6-yl)acetic acid] | 1810 | 10 | 3270 | – |
| COC(=O)N1CC(N2CCC(c3nn(C4CC4)c4ccc(-c5nc6cc(C)c([C@H](OC(C)(C)C)C(=O)O)c(-c7ccc(Cl)cc7)c6s5)cc34)CC2)C1 [Compound 46, (S)-2-(tert-butoxy)-2-(7-(4-chlorophenyl)-2-(1-cyclopropyl-3-(1-(1-(methoxycarbonyl)azetidin-3-yl)piperidin-4-yl)-1H-indazol-5-yl)-5-methylbenzo[d]thiazol-6-yl)acetic acid] | 352 | 17 | 716 | – |
| Cc1cc2nc(-c3ccc4c(c3)c(C3CCN(C5CN(C(C)C(F)(F)F)C5)CC3)nn4C)sc2c(-c2ccc(Cl)cc2)c1[C@H](OC(C)(C)C)C(=O)O (stereo partly drawn) [Compound 8, (2S)-2-(tert-butoxy)-2-(7-(4-chlorophenyl)-5-methyl-2-(1-methyl-3-(1-(1-(1,1,1-trifluoropropan-2-yl)azetidin-3-yl)piperidin-4-yl)-1H-indazol-5-yl)benzo[d]thiazol-6-yl)acetic Acid] | 1090 | 13 | 1330 | – |
| CCN1CCC(c2nn(C)c3ccc(-c4nc5cc(C)c([C@H](OC(C)(C)C)C(=O)O)c(-c6ccc(Cl)cc6)c5s4)cc23)CC1 [Compound 126, (S)-2-(tert-butoxy)-2-(7-(4-chloro-phenyl)-2-(3-(1-ethylpiperidin-4-yl)-1-methyl-1H-indazol-5-yl)-5-methylbenzo[d]thiazol-6-yl) acetic acid] | 551 | 8 | 540 | – |
| Cc1cc2nc(-c3ccc4c(c3)c(C3CCN(C(=O)C5CCO5)CC3)nn4C)sc2c(-c2ccc(Cl)cc2)c1[C@H](OC(C)(C)C)C(=O)O (stereo partly drawn) [Compound 159, (2S)-2-(tert-butoxy)-2-(7-(4-chloro-phenyl)-5-methyl-2-(1-methyl-3-(1-(oxetane-2-carbonyl)piperidin-4-yl)-1H-indazol-5-yl)benzo[d]thiazol-6-yl) acetic acid] | 430 | 11 | 583 | – |
| Cc1cc2nc(-c3ccc4c(n3)c(N3CCN(C5CS(=O)(=O)C5)CC3)nn4C)sc2c(-c2ccc(Cl)cc2)c1[C@H](OC(C)(C)C)C(=O)O [Compound 198, (S)-2-(tert-butoxy)-2-(7-(4-chloro-phenyl)-2-(3-(4-(1,1-dioxidothietan-3-yl)piperazin-1-yl)-1-methyl-1H-pyrazolo[4,3-b]pyridin-5-yl)-5-methylbenzo[d]thiazol-6-yl) acetic acid] | 1040 | 9 | 4620 | – |
| Cc1cc2nc(-c3ccc4c(c3)c(N3CCN(C)CC3=O)nn4C)sc2c(-c2ccc(Cl)cc2)c1[C@H](OC(C)(C)C)C(=O)O [Compound 87, (S)-2-(tert-butoxy)-2-(7-(4-chlorophenyl)-5-methyl-2-(1-methyl-3-(4-methyl-2-oxopiperazin-1-yl)-1H-indazol-5-yl)benzo[d]thiazol-6-yl)acetic acid] | – | 13 | – | – |
| Cc1cc2nc(-c3ccc4c(n3)c(N3CCN(C)CC3)nn4C)sc2c(-c2ccc(Cl)cc2)c1[C@H](OC(C)(C)C)C(=O)O [Compound 196, (S)-2-(tert-butoxy)-2-(7-(4-chloro-phenyl)-5-methyl-2-(1-methyl-3-(4-methylpiperazin-1-yl)-1H-pyrazolo [4,3-b]pyridin-5-yl)benzo[d]thiazol-6-yl)acetic acid] | – | 4 | – | – |
